Reference: a flash point compilation (Sun et al. 2020)

Going from CCCCC(C=O)CC (stereo not given) [2-ethylhexanal] to CCCCOC(=O)CC [butyl propanoate], the flash point falls from 52.00 °C to 38.00 °C.

Compared with O=C(O)C(O)C(O)C(=O)O (stereo not given) [2,3-dihydroxybutanedioic acid], CC(O)C(=O)O (stereo not given) [2-hydroxypropanoic acid] is lower in flash point: 210.00 °C for the first, 113.00 °C for the second.

Compared with CCCCCCCCCC(=O)O [decanoic acid], CCCCCCCCCCCO [undecan-1-ol] is lower in flash point: 113.00 °C for the first, 93.00 °C for the second.

First: CC(O)CN (stereo not given) [1-aminopropan-2-ol]
Second: CC(N)CCN (stereo not given) [butane-1,3-diamine]
The flash point of the first is higher: 77.00 °C for the first, 52.00 °C for the second.

Compared with COS(=O)(=O)c1ccc(C)cc1 [methyl 4-methylbenzenesulfonate], Cc1ccc(C)cc1 [1,4-xylene] is lower in flash point: 152.00 °C for the first, 27.00 °C for the second.

Compared with OCC(CO)(CO)CO [2,2-bis(hydroxymethyl)propane-1,3-diol], OCCCCO [butane-1,4-diol] is lower in flash point: 240.00 °C for the first, 119.00 °C for the second.

First: Cc1ccc2ccccc2n1 [2-methylquinoline]
Second: O=[N+]([O-])c1cccc2ccccc12 [1-nitronaphthalene]
The flash point of the first is lower: 79.00 °C for the first, 164.00 °C for the second.

Going from CC(=O)C(C)C [3-methylbutan-2-one] to CC(=O)OC(C)CC(C)C (stereo not given) [4-methylpentan-2-yl acetate], the flash point rises from 6.00 °C to 45.00 °C.

Going from O=Cc1ccccc1Cl [2-chlorobenzaldehyde] to Oc1ccccc1Cl [2-chlorophenol], the flash point falls from 88.00 °C to 64.00 °C.

Compared with CCCCCCCCCCCCc1ccccc1 [dodecylbenzene], C=CCCCCCCCCCCC [tridec-1-ene] is lower in flash point: 135.00 °C for the first, 79.00 °C for the second.

Compared with CC(=O)Oc1ccccc1 [phenyl acetate], CC(C)OC(=O)Cc1ccccc1 [propan-2-yl 2-phenylacetate] is higher in flash point: 80.00 °C for the first, 95.00 °C for the second.

Going from CCCCC(CC)COC(=O)c1ccc(C(=O)OCC(CC)CCCC)cc1 (stereo not given) [bis(2-ethylhexyl) benzene-1,4-dicarboxylate] to CCCCC(CC)COC(=O)CCCCC(=O)OCC(CC)CCCC (stereo not given) [bis(2-ethylhexyl) hexanedioate], the flash point falls from 238.00 °C to 196.00 °C.

Compared with CCCCCCCC=O [octanal], C=CCCCCCCC [non-1-ene] is lower in flash point: 52.00 °C for the first, 26.00 °C for the second.

First: COc1ccc(O)c(C(C)(C)C)c1 [2-tert-butyl-4-methoxyphenol]
Second: CC(C)(C)c1ccc(O)cc1 [4-tert-butylphenol]
The flash point of the first is higher: 156.00 °C for the first, 113.00 °C for the second.

Going from C=Cc1ccccc1C=C [1,2-bis(ethenyl)benzene] to C=Cc1ccccc1 [styrene], the flash point falls from 62.00 °C to 31.00 °C.

First: CCCCCCCCCCCCCCCC[Si](Cl)(Cl)Cl [trichloro(hexadecyl)silane]
Second: CCCCCCCCCCCCCCCCCCS [octadecane-1-thiol]
The flash point of the first is lower: 146.00 °C for the first, 185.00 °C for the second.

First: Oc1ccc(-c2ccccc2)cc1 [4-phenylphenol]
Second: Nc1ccccc1 [aniline]
The flash point of the first is higher: 166.00 °C for the first, 70.00 °C for the second.

Going from NCc1ccco1 [furan-2-ylmethanamine] to Cc1cccc(N)c1C [2,3-dimethylaniline], the flash point rises from 37.00 °C to 97.00 °C.

Going from CN1CCOCC1 [4-methylmorpholine] to CN1CSC(=S)N(C)C1 [3,5-dimethyl-1,3,5-thiadiazinane-2-thione], the flash point rises from 24.00 °C to 93.00 °C.

Going from CCC(=O)O [propanoic acid] to O=C(O)CS [2-sulfanylacetic acid], the flash point rises from 54.00 °C to 113.00 °C.

Compared with CC(C)=CC=O [3-methylbut-2-enal], CC(C)=CCCC(C)=CC=O [3,7-dimethylocta-2,6-dienal] is higher in flash point: 37.00 °C for the first, 102.00 °C for the second.

Compared with C=CC/C=C/C [(4E)-hexa-1,4-diene], C=CCC [but-1-ene] is lower in flash point: -21.00 °C for the first, -79.00 °C for the second.

Compared with CNC [N-methylmethanamine], CC(C)S [propane-2-thiol] is lower in flash point: -7.00 °C for the first, -34.00 °C for the second.

Compared with C[Si](C)(C)Cl [chloro(trimethyl)silane], CN(C)C(=O)Cl [N,N-dimethylcarbamoyl chloride] is higher in flash point: -18.00 °C for the first, 68.00 °C for the second.

Compared with CC(C)(C)CC(C)(C)S [2,4,4-trimethylpentane-2-thiol], CC(C)(O)C#N [2-hydroxy-2-methylpropanenitrile] is higher in flash point: 46.00 °C for the first, 74.00 °C for the second.

First: COC(=O)/C=C(\C)OP(=O)(OC)OC [methyl (E)-3-dimethoxyphosphoryloxybut-2-enoate]
Second: CCOC(C)=O [ethyl acetate]
The flash point of the first is higher: 79.00 °C for the first, -4.00 °C for the second.

Going from C/C=C/c1ccccc1 [[(E)-prop-1-enyl]benzene] to OCC=Cc1ccccc1 [3-phenylprop-2-en-1-ol], the flash point rises from 52.00 °C to 126.00 °C.

Going from CC(=O)Br [acetyl bromide] to COc1ccc(C(C)=O)cc1 [1-(4-methoxyphenyl)ethanone], the flash point rises from 75.00 °C to 138.00 °C.

First: C=CCOCC=C [3-prop-2-enoxyprop-1-ene]
Second: C=CCOCC1CO1 (stereo not given) [2-(prop-2-enoxymethyl)oxirane]
The flash point of the first is lower: -7.00 °C for the first, 57.00 °C for the second.

Going from Cc1ccc(OP(=O)(Oc2ccc(C)cc2C)Oc2ccc(C)cc2C)c(C)c1 [tris(2,4-dimethylphenyl) phosphate] to Cc1ccc(C)cc1.Cc1cccc(C)c1.Cc1ccccc1C [1,2-xylene;1,3-xylene;1,4-xylene], the flash point falls from 232.00 °C to 25.00 °C.

First: CCCNCCC [N-propylpropan-1-amine]
Second: CCCC(C)CO (stereo not given) [2-methylpentan-1-ol]
The flash point of the first is lower: 17.00 °C for the first, 54.00 °C for the second.

First: CCOP(=S)(OCC)Oc1cc(C)nc(N(CC)CC)n1
Second: COP(=S)(OC)Oc1nc(Cl)c(Cl)cc1Cl
The flash point of the first is lower: 113.00 °C for the first, 182.00 °C for the second.

Compared with CCC(C)=NO [N-butan-2-ylidenehydroxylamine], CCN(O)CC [N,N-diethylhydroxylamine] is lower in flash point: 59.00 °C for the first, 45.00 °C for the second.

Compared with CC(C)[C@H](C(=O)O[C@H](C#N)c1cccc(Oc2ccccc2)c1)c1ccc(Cl)cc1, CC(C)c1ccccc1 [cumene] is lower in flash point: 256.00 °C for the first, 36.00 °C for the second.

First: CCCCCCOC(=O)CCCCC(=O)OCCCCCC [dihexyl hexanedioate]
Second: CCCCOC(=O)CCCCC(=O)OCCCC [dibutyl hexanedioate]
The flash point of the first is higher: 163.00 °C for the first, 113.00 °C for the second.

Compared with CC1(C)[C@@H]2CC[C@]1(C)[C@H](O)C2 [(1S,2R,4R)-1,7,7-trimethylbicyclo[2.2.1]heptan-2-ol], CC1CCC(C(C)C)C(O)C1 (stereo not given) [5-methyl-2-propan-2-ylcyclohexan-1-ol] is higher in flash point: 66.00 °C for the first, 91.00 °C for the second.

Going from C=CC [prop-1-ene] to C=CC=O [prop-2-enal], the flash point rises from -108.00 °C to -26.00 °C.

Compared with NNC(=O)c1ccncc1 [pyridine-4-carbohydrazide], Cc1ccncc1 [4-methylpyridine] is lower in flash point: 190.00 °C for the first, 57.00 °C for the second.

First: C/C=C/c1ccc(O)c(OC)c1 [2-methoxy-4-[(E)-prop-1-enyl]phenol]
Second: COc1ccc(C=O)cc1 [4-methoxybenzaldehyde]
The flash point of the first is lower: 113.00 °C for the first, 116.00 °C for the second.

First: O=S1(=O)CC=CC1 [2,5-dihydrothiophene 1,1-dioxide]
Second: C1=CCCC=CCCC=CCC1 [cyclododeca-1,5,9-triene]
The flash point of the first is higher: 113.00 °C for the first, 71.00 °C for the second.

Going from ClCC(Br)CBr (stereo not given) [1,2-dibromo-3-chloropropane] to CCCl [chloroethane], the flash point falls from 77.00 °C to -50.00 °C.

Going from CN(C)P(=O)(N(C)C)N(C)C [N-[bis(dimethylamino)phosphoryl]-N-methylmethanamine] to CN(C)CCCN [N',N'-dimethylpropane-1,3-diamine], the flash point falls from 106.00 °C to 16.00 °C.

First: CCCCOC(=O)c1ccccc1C(=O)OCCCC [dibutyl benzene-1,2-dicarboxylate]
Second: CCCNCC(O)COc1ccccc1C(=O)CCc1ccccc1 (stereo not given)
The flash point of the first is lower: 157.00 °C for the first, 199.00 °C for the second.

First: CCCCOB(OCCCC)OCCCC [tributyl borate]
Second: C=CCCCCCCCC [dec-1-ene]
The flash point of the first is higher: 93.00 °C for the first, 53.00 °C for the second.

First: CC1=C[C@H]2C(=O)O[C@H]3C[C@@H](C/C=C(\C)C[C@@H](C)/C=C/C=C4\CO[C@H]([C@@H]1O)[C@@]42O)O[C@@]1(CC[C@H](C)[C@@H](C)O1)C3
Second: CC(C)(c1ccc(OC[C@@H]2CO2)cc1)c1ccc(OC[C@@H]2CO2)cc1
The flash point of the first is lower: 43.00 °C for the first, 79.00 °C for the second.

Compared with CC(C)CC=O [3-methylbutanal], C=CCC(C)C [4-methylpent-1-ene] is lower in flash point: 13.00 °C for the first, -32.00 °C for the second.

First: CCOS(C)(=O)=O [ethyl methanesulfonate]
Second: C=CCOC(=O)COCCC(C)C [prop-2-enyl 2-(3-methylbutoxy)acetate]
The flash point of the first is higher: 100.00 °C for the first, 68.00 °C for the second.

First: SC1CCCCC1 [cyclohexanethiol]
Second: CC(=O)C1C(=O)C=C(C)OC1=O (stereo not given) [3-acetyl-6-methylpyran-2,4-dione]
The flash point of the first is lower: 43.00 °C for the first, 69.00 °C for the second.

Going from Cc1cccnc1 [3-methylpyridine] to Cc1cccc(Cl)c1 [1-chloro-3-methylbenzene], the flash point rises from 36.00 °C to 52.00 °C.

Going from Cc1ccc(C)c(C)c1 [1,2,4-trimethylbenzene] to Clc1ccc(Cl)c(Cl)c1 [1,2,4-trichlorobenzene], the flash point rises from 44.00 °C to 110.00 °C.

Going from CCCCCCN [hexan-1-amine] to C=COCCCl [1-chloro-2-ethenoxyethane], the flash point falls from 29.00 °C to 16.00 °C.

Going from CC(=O)Nc1ccc(C(=O)CCl)cc1 [N-[4-(2-chloroacetyl)phenyl]acetamide] to Nc1ccc(F)cc1 [4-fluoroaniline], the flash point falls from 110.00 °C to 74.00 °C.

O=C1OC(=O)c2cccc3cccc1c23 showed a flash point of 272.00 °C.
